According to patent publication US20080207527A1, “Bicyclic Compounds Which Inhibit Beta-Secretase Activity and Methods of Use Thereof” (CoMentis, Inc., priority 2004, published 2008):

Legend:
[1] = biological target: memapsin 2 (Homo sapiens, UniProt P56817); test: Inhibition of memapsin 2 beta-secretase activity toward fluorogenic substrate FS-2; assay type: biochemical; conditions: pH 4, 37° C., 20 minutes pre-incubation, read-out: M2 Ki
Outline: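 Enzyme pre-incubated with compound 20 min at pH 4, 37 °C, then fluorogenic substrate FS-2 added. Inhibition derived from rate of fluorescence increase from peptide hydrolysis.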

[2] = biological target: Cathepsin D (Homo sapiens, UniProt P07339); test: Inhibition of cathepsin D activity (substrate peptide hydrolysis, MALDI-TOF); assay type: biochemical; conditions: pH 4.1, 37 degrees C., read-out: Cath D Ki
[3] = biological target: T1, memapsin 1 (Homo sapiens, UniProt Q9Y5Z0); test: Inhibition of memapsin 1 beta-secretase activity (substrate peptide hydrolysis, MALDI-TOF); assay type: biochemical; conditions: pH 4.1, 37 degrees C., read-out: M1 Ki
T1 sequence (Q9Y5Z0 63-518): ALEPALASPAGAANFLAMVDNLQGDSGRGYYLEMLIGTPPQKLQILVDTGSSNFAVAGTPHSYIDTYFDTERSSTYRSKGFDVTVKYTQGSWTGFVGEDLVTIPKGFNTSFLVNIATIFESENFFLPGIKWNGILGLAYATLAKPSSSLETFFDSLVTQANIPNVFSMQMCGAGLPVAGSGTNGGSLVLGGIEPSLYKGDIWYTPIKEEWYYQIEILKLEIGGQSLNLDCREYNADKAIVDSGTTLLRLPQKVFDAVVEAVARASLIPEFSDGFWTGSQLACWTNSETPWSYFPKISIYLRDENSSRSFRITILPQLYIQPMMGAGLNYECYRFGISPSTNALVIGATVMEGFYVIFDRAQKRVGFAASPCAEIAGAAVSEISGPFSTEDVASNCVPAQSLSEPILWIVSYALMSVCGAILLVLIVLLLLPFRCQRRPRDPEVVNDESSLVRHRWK

[4] = tested on: Aβ production; test: Cellular Aβ IC50 determination (Aβ40 sandwich ELISA); assay type: cell-based; conditions: Cricetulus griseus, Chinese hamster ovary cells over-expressing human APP695 with London and Swedish mutations, 24 h
Outline: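 CHO cells over-expressing human APP695 (London and Swedish mutations) were treated 48 h after seeding with serially diluted compound, top final concentration near 4 μM (0.4% DMSO), for 24 h at 37 °C, 5% CO2. Aβ40 in medium was measured by sandwich ELISA; values relative to control were fit to a 4-parameter IC50 model.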

memapsin 2, sequence (P56817 46-501): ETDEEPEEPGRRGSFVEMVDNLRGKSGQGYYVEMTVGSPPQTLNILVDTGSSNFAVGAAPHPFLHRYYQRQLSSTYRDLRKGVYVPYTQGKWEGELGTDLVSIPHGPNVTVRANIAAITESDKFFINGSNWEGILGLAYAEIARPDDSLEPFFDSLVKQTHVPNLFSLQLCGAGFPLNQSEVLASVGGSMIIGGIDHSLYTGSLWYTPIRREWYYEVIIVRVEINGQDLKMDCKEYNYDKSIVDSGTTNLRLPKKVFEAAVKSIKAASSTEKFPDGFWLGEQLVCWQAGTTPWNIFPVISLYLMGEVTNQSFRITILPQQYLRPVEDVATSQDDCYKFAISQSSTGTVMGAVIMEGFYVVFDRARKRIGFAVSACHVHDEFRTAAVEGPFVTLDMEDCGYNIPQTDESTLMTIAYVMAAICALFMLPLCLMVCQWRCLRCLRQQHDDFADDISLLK
Cathepsin D, sequence (P07339 65-412, species assumed): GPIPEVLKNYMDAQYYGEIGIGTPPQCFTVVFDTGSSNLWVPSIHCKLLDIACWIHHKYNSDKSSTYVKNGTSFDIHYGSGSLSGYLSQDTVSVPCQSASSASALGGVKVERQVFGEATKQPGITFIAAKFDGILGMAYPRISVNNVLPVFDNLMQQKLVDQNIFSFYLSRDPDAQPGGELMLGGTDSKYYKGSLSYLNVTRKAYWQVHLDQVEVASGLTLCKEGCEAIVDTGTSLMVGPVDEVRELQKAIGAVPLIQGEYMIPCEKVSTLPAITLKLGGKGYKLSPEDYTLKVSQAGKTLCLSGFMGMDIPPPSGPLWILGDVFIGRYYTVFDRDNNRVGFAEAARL

SMILES | Ki [1] | Ki [2] | Ki [3] | IC50 [4]
CC(C)CC(NC(=O)c1cc(C(=O)NC(C)c2ccccc2)cc(N(C)S(C)(=O)=O)c1)C(O)CC(C)C(=O)NC(C)c1ccccc1 (stereo not shown) [N1-(5-hydroxy-2,7-dimethyl-8-oxo-8-(1-phenylethylamino)octan-4-yl)-5-(N-methylmethylsulfonamido)-N3-(1-phenylethyl)isophthalamide] | 405 to 2000 nM | 2000 to 5000 nM | > 5000 nM | 10000 to 20000 nM
CC(C)CNC(=O)C(NC(=O)C(C)CC(O)C(CC(C)C)NC(=O)c1cc(C(=O)NC(C)c2ccccc2)cc(S(=O)(=O)N(C)C)c1)C(C)C (stereo not shown) [5-(N,N-dimethylsulfamoyl)-N1-(5-hydroxy-8-(1-(isobutylamino)-3-methyl-1-oxobutan-2-ylamino)-2,7-dimethyl-8-oxooctan-4-yl)-N3-(1-phenylethyl)isophthalamide] | 405 to 2000 nM | < 405 nM | < 405 nM | < 5000 nM
CC(C)CNC(=O)C(NC(=O)C(C)CC(O)C(CC(C)C)NC(=O)c1cccc(C(=O)N(C)Cc2ccccn2)c1)C(C)C (stereo not shown) [N1-(5-hydroxy-8-(1-(isobutylamino)-3-methyl-1-oxobutan-2-ylamino)-2,7-dimethyl-8-oxooctan-4-yl)-N3-methyl-N3-(pyridin-2-ylmethyl)isophthalamide] | 405 to 2000 nM | < 405 nM | < 405 nM | > 20000 nM
CC(C)CNC(=O)C(NC(=O)C(C)CC(O)C(CC(C)C)NC(=O)c1cccc(C(=O)N(C)Cc2cnccn2)c1)C(C)C (stereo not shown) [N1-(5-hydroxy-8-(1-(isobutylamino)-3-methyl-1-oxobutan-2-ylamino)-2,7-dimethyl-8-oxooctan-4-yl)-N3-methyl-N3-(pyrazin-2-ylmethyl)isophthalamide] | 405 to 2000 nM | < 405 nM | 405 to 2000 nM | > 20000 nM
CC(C)CC(NC(=O)c1cc(C(=O)NC(C)c2ccccc2)cc(N(C)S(C)(=O)=O)c1)C(O)CC(C)C(=O)NC(C(=O)NCc1ccncc1)C(C)C (stereo not shown) [N1-(5-hydroxy-2,7-dimethyl-8-(3-methyl-1-oxo-1-(pyridin-4-ylmethylamino)butan-2-ylamino)-8-oxooctan-4-yl)-5-(N-methylmethylsulfonamido)-N3-(1-phenylethyl)isophthalamide] | < 405 nM | < 405 nM | < 405 nM | < 5000 nM
Cc1csc(CNC(=O)c2cccc(C(=O)N[C@@H](CC(C)C)[C@@H](O)C[C@@H](C)C(=O)N[C@H](C(=O)NCC(C)C)C(C)C)c2)n1 [N1-(5-hydroxy-8-(1-(isobutylamino)-3-methyl-1-oxobutan-2-ylamino)-2,7-dimethyl-8-oxooctan-4-yl)-N3-((4-methylthiazol-2-yl)methyl)isophthalamide] | < 405 nM | 405 to 2000 nM | 2000 to 5000 nM | > 20000 nM
Cc1csc(CN(C)C(=O)c2cccc(C(=O)NC(CC(C)C)C(O)CC(C)C(=O)NC(C(=O)NCC(C)C)C(C)C)c2)n1 (stereo not shown) [N1-(5-hydroxy-8-(1-(isobutylamino)-3-methyl-1-oxobutan-2-ylamino)-2,7-dimethyl-8-oxooctan-4-yl)-N3-methyl-N3-((4-methylthiazol-2-yl)methyl)isophthalamide] | < 405 nM | < 405 nM | 405 to 2000 nM | < 5000 nM
CC(C)CNC(=O)C(NC(=O)C(C)CC(O)C(CC(C)C)NC(=O)c1cccc(C(=O)N(C)C(C)c2ccccc2)c1)C(C)C (stereo not shown) [N1-(5-hydroxy-8-(1-(isobutylamino)-3-methyl-1-oxobutan-2-ylamino)-2,7-dimethyl-8-oxooctan-4-yl)-N3-methyl-N3-(1-phenylethyl)isophthalamide] | < 405 nM | < 405 nM | < 405 nM | > 20000 nM

Next, values leading:

Ki [1] | Ki [2] | Ki [3] | IC50 [4] | SMILES
< 405 nM | < 405 nM | < 405 nM | < 5000 nM | CCC(NC(=O)C(C)CC(O)C(CC(C)C)NC(=O)c1cc(C(=O)NC(C)c2ccccc2)cc(N(C)S(C)(=O)=O)c1)C(=O)NCC(C)C (stereo not shown) [N1-(5-hydroxy-8-(1-(isobutylamino)-1-oxobutan-2-ylamino)-2,7-dimethyl-8-oxooctan-4-yl)-5-(N-methylmethylsulfonamido)-N3-(1-phenylethyl)isophthalamide]
< 405 nM | < 405 nM | 405 to 2000 nM | > 20000 nM | CC(C)CNC(=O)C(NC(=O)C(C)CC(O)C(CC(C)C)NC(=O)c1cc(C(=O)N(C)Cc2ccccn2)cc(N(C)S(C)(=O)=O)c1)C(C)C (stereo not shown) [N1-(5-hydroxy-8-(1-(isobutylamino)-3-methyl-1-oxobutan-2-ylamino)-2,7-dimethyl-8-oxooctan-4-yl)-N3-methyl-5-(N-methylmethylsulfonamido)-N3-(pyridin-2-ylmethyl)isophthalamide]
405 to 2000 nM | < 405 nM | < 405 nM | 10000 to 20000 nM | CCCN(CCC)C(=O)c1cccc(C(=O)NC(Cc2ccc(OC)c(Cl)c2)C(O)CC(C)C(=O)NC(C(=O)NCC(C)C)C(C)C)c1 (stereo not shown) [N1-(1-(3-chloro-4-methoxyphenyl)-3-hydroxy-6-(1-(isobutylamino)-3-methyl-1-oxobutan-2-ylamino)-5-methyl-6-oxohexan-2-yl)-N3,N3-dipropylisophthalamide]
< 405 nM | < 405 nM | < 405 nM | > 20000 nM | CC(C)CNC(=O)C(NC(=O)C(C)CC(O)C(CC(C)C)NC(=O)c1cccc(C(=O)N(C)Cc2cccnc2)c1)C(C)C (stereo not shown) [N1-(5-hydroxy-8-(1-(isobutylamino)-3-methyl-1-oxobutan-2-ylamino)-2,7-dimethyl-8-oxooctan-4-yl)-N3-methyl-N3-(pyridin-3-ylmethyl)isophthalamide]
< 405 nM | 405 to 2000 nM | 405 to 2000 nM | < 5000 nM | CC(C)CC(NC(=O)c1cc(C(=O)NC(C)c2ccccc2)cc(N(C)S(C)(=O)=O)c1)C(O)CC(C)C(=O)NC(C(=O)NCC1CCCN1C)C(C)C (stereo not shown) [N1-(5-hydroxy-2,7-dimethyl-8-(3-methyl-1-((1-methylpyrrolidin-2-yl)methylamino)-1-oxobutan-2-ylamino)-8-oxooctan-4-yl)-5-(N-methylmethylsulfonamido)-N3-(1-phenylethyl)isophthalamide]
2000 to 5000 nM | > 5000 nM | 2000 to 5000 nM | > 20000 nM | CC(C)CC(NC(=O)c1cc(C(=O)NC(C)c2ccccc2)cc(N(C)S(C)(=O)=O)c1)C(O)CC(C)C(=O)NCc1ccccc1 (stereo not shown) [N1-(8-(benzylamino)-5-hydroxy-2,7-dimethyl-8-oxooctan-4-yl)-5-(N-methylmethylsulfonamido)-N3-(1-phenylethyl)isophthalamide]
405 to 2000 nM | < 405 nM | < 405 nM | > 20000 nM | CC(C)CNC(=O)C(NC(=O)C(C)CC(O)C(CC(C)C)NC(=O)c1cc(C(=O)N(C)C(C)c2ccccc2)cc(N(C)S(C)(=O)=O)c1)C(C)C (stereo not shown) [N1-(5-hydroxy-8-(1-(isobutylamino)-3-methyl-1-oxobutan-2-ylamino)-2,7-dimethyl-8-oxooctan-4-yl)-N3-methyl-5-(N-methylmethylsulfonamido)-N3-(1-phenylethyl)isophthalamide]
> 5000 nM | > 5000 nM | > 5000 nM | 10000 to 20000 nM | COc1cccc(CNC(=O)C(C)CC(O)C(CC(C)C)NC(=O)c2cc(C(=O)NC(C)c3ccccc3)cc(N(C)S(C)(=O)=O)c2)c1 (stereo not shown) [N1-(5-hydroxy-8-(3-methoxybenzylamino)-2,7-dimethyl-8-oxooctan-4-yl)-5-(N-methylmethylsulfonamido)-N3-(1-phenylethyl)isophthalamide]
405 to 2000 nM | 405 to 2000 nM | 405 to 2000 nM | > 20000 nM | CC(C)CC(NC(=O)c1cc(C(=O)NC2c3ccccc3CC2O)cc(N(C)S(C)(=O)=O)c1)C(O)CC(C)C(=O)NC(C(=O)NC(C)C)C(C)C (stereo not shown) [N1-(2-hydroxy-2,3-dihydro-1H-inden-1-yl)-N3-(5-hydroxy-8-(1-(isopropylamino)-3-methyl-1-oxobutan-2-ylamino)-2,7-dimethyl-8-oxooctan-4-yl)-5-(N-methylmethylsulfonamido)isophthalamide]
< 405 nM | < 405 nM | 405 to 2000 nM | 10000 to 20000 nM | CCCN(Cc1nc(C)cs1)C(=O)c1cccc(C(=O)NC(CC(C)C)C(O)CC(C)C(=O)NC(C(=O)NCC(C)C)C(C)C)c1 (stereo not shown) [N1-(5-hydroxy-8-(1-(isobutylamino)-3-methyl-1-oxobutan-2-ylamino)-2,7-dimethyl-8-oxooctan-4-yl)-N3-((4-methylthiazol-2-yl)methyl)-N3-propylisophthalamide]
< 405 nM | < 405 nM | < 405 nM | < 5000 nM | CCN1CCCC1CNC(=O)C(NC(=O)C(C)CC(O)C(CC(C)C)NC(=O)c1cc(C(=O)NC(C)c2ccccc2)cc(N(C)S(C)(=O)=O)c1)C(C)C (stereo not shown) [N1-(8-(1-((1-ethylpyrrolidin-2-yl)methylamino)-3-methyl-1-oxobutan-2-ylamino)-5-hydroxy-2,7-dimethyl-8-oxooctan-4-yl)-5-(N-methylmethylsulfonamido)-N3-(1-phenylethyl)isophthalamide]
